Read-outs that look alike come from different tables or passages of the source. Marks after values point to notes of the source that are not given here. Ends that are not written are not given here. * marks the point of attachment. Biotin = O=C1N[C@H]2[C@H](CS[C@H]2CCCCC(=O)*)N1
Experiments:
[1] = tested on: 13H11 cells; conditions: flow cytometry
Method: (§1) Use of antibody-coated beads and cell lines for tetramer quality control. Tetramer stocks were diluted to twice the desired final concentration in PBS containing 1% BSA. An equal volume of beads or cells at 5×10^5 up to 2×10^6 per sample were mixed with tetramer and incubated (4° C.×30 min). Beads or cells were washed with PBS+1% BSA before being fixed in 2% methanol-free formaldehyde (Polysciences, Inc, Warrington, Pa.) in PBS. Samples were stored at 4° C. prior to being analyzed by flow cytometry (BD LSR II, Becton Dickinson, Mountain View, Calif.). Data were analyzed using FlowJo (Tree Star, Ashland, Oreg.). For tetramer titration 40-80 ng tetramer per 10^6 cells/beads was serially diluted over 8-12 points. Optimal concentrations determined by this method were used for subsequent experiments. For cold competition experiments the incubation step was performed by staining with 10-fold excess unlabeled tetramer (4° C.×30 min) prior to the addition of APC-labeled tetramer. For cell dilution experiments, a mixture of mAb cell lines was made and then 1:10 serial dilutions of cells prepared. For cross competition experiments, mixtures of cells were prepared and then stained singly with anti-IgG reagents or tetramer, or the cells were doubly stained with both reagents either sequentially or concurrently.

[2] = tested on: mixture of anti-gp41 MPER 13H11 cells and anti-gp120 V3 F39F cells
Method: as §1

[3] = tested on: naïve splenic B cells, C57BL/6 congenic strain bearing the IgH^a allotype
Method: Mice. Female C57BL/6, BALB/c, B6Igh^a, and CB17 (BALBc Igh^b) inbred mouse strains (8-12 weeks of age) were purchased from Charles River Laboratories. All mice were housed in the Duke University Animal Facility in a pathogen-free environment with 12 hour light/dark cycles at 20-25° C. under AALAC guidelines and in accordance with all Institutional Animal Care and Use Committee and Duke University Institutional Biosafety Committee-approved animal protocols.
(§2) Antibodies and flow cytometry. Immunofluorescent staining of single cell suspensions (≧2×10^6) was conducted using pre-mixed combinations of fluorochrome-labeled antibodies and APC-conjugated B cell tetramers at empirically-determined optimal concentrations. All antibodies were from BD unless otherwise stated. […] Other reagents included biotinylated antibodies against dump channel markers: Thy1 (Ox7; Abcam), F4/80 (BM8; Abcam), CD11c (clone HL3), Gr-1 (clone RB6-8C5), TER-119, and NK-1.1 (clone PK136), secondary staining SA-Texas Red conjugate; v-amine live/dead violet dye (Molecular Probes), and Fc block (anti-CD16/32; clone 2.4G2).
Staining was conducted at 4° C. in several sequential steps in FACS staining buffer (1×PBS with 2% FCS, 0.1% NaN3), washing twice between steps. First, cells were incubated with v-amine live/dead dye for 15 min. Next, cells were stained with APC-labeled tetramers for 30 min. […]

[4] = tested on: B cell subsets from naive C57BL/6 mice
Method: Cell isolation, serum collection, and PBMC isolations. Heparinized or non-heparanized blood was collected sub-mandibularly 10 days after immunizations. For preparation of peripheral blood lymphocytes for B cell tetramer analysis, PBMC were isolated from blood collected in heparinized tubes (0.2 ml) using Lympholyte M (Cederlane). For Luminex and ELISA assays, sera was isolated from non-heparanized blood and stored at −20° C. until use. Spleen, bone marrow (BM), and peritoneal cavity (PerC) cells were also collected. For most immunizations, tissues were harvested after the 4th boost, except for kinetic studies, in which tissues from mice were harvested after 1, 3 or 7 days after a single immunization. For BM preparations, femora and tibiae were removed, aspirated with tissue medium using 23 gauge needles, filtered with 70 μm cell strainers (BD labware), and RBC-depleted using Tris-buffered ammonium chloride lysis. For splenocyte preparation, spleens were harvested and dissociated into single-cell suspensions either by passage through 70 μm cell strainers in tissue medium or by using frosted glass slides, and blood erythrocytes were depleted with ammonium chloride lysis. For isolation of peritoneal cells, peritoneal cavities of sacrificed mice were lavaged by injection with 10 ml of PBS, followed by gentle massage of the abdomen, and withdrawal of the peritoneal exudates. BM, splenic, and peritoneal single cell suspensions were centrifuged at 1500 rpm for 5 min and resuspended in 5, 10, and 1 ml of tissue media, respectively, for cell counts and immunofluorescence staining. Cell counts were performed in duplicate on a Coulter ZI Dual Threshold Cell Counter (Coulter).
as §2
Staining was conducted at 4° C. in several sequential steps in FACS staining buffer (1×PBS with 2% FCS, 0.1% NaN3), washing twice between steps. First, cells were incubated with v-amine live/dead dye for 15 min. Next, cells were stained with APC-labeled tetramers for 30 min. Where applicable, this was preceded by addition of cold tetramer at 10 fold molar excess for 1 h. Finally, cells were stained with Fc block for 30 min, followed by incubation with combinations of primary antibody cocktails for 30 min, and secondary staining with SA-Texas Red for 30 min.
Data were acquired using an LSRII flow cytometer and Cell Quest software (BD Immunocytometry systems). A minimum of 250000 events were acquired per sample. FACS Analysis was performed using FlowJo software (Tree Star). For analysis, single cells were positively gated based on their forward scatter height vs. forward scatter area and side scatter height vs. side scatter area profiles, lymphocytes were then positively gated based on their forward and side scatter profile (live lymphocyte gate), residual dead cells were excluded with negative gating on v-amine live/dead dye, and all irrelevant non-B cells were excluded with negative gating on dump markers Thy1, F4/80, CD11c, Gr-1, TER-119, and NK-1.1.
To examine if gp41 2F5 MPER epitope reactivity across B cell subsets mapped similarly on the IgH^b allotype, reactivity to gp41 2F5 MPER tetramers was measured by measuring the percentage of APC-labeled gp41 2F5 MPER tetramer-reactive cells in C57BL/6 bone marrow, splenic, and peritoneal B cell subsets (Table 10).

[5] = tested on: mAb 13H11 and mAb 2F5 on beads; conditions: flow cytometry, mAbs 13H11 and 2F5 on beads
Method: Antibody-coated beads. Carboxyl-polystyrene beads (3.0-3.4 μm) (Spherotech, Inc., Lake Forest, Ill.) were resuspended in 0.01 M sodium acetate buffer (pH 5.0) and reacted (20° C.×1 hr) with 1-ethyl-3-(3-dimethylaminopropyl) carbodiimide hydrochloride (EDC) (Sigma-Aldrich, Co., St. Louis, Mo.) at a ratio of 3.1 mg beads to 1 mg EDC. Beads were washed with sodium acetate buffer, resuspended in a minimal volume before adding purified mAb in the same buffer (ratio of 16 mg beads to 1 mg mAb), incubated (20° C.×2 hrs), then washed with sodium acetate buffer. Beads were resuspended at 5% in PBS containing 1% bovine serum albumin and 0.02% sodium azide.
as §1

## Biotin-GGGQQEKNEQELLELDKWASLWN [gp41 MPER tetramer]
[1]
  binding to mAb cell line: bound
[2]; mixture diluted tenfold with F39F cells
  cells stained with tetramer: 1.47%
[2]; mixture further diluted tenfold with F39F cells
  cells staining over background: 0.12%
[2]; mixture of 85% F39F cells and 15% 13H11 cells
  cells stained with tetramer: 15.1%
[3]
  tetramer binding to splenic B cells: restores gp41 2F5 MPER binding
[4]; C57BL/6, Bone marrow, Immature
  % of subset binding tetramer ± SEM: 0.30 ± 0.04%
[4]; C57BL/6, Bone marrow, MF
  % of subset binding tetramer ± SEM: 0.15 ± 0.06%
[4]; C57BL/6, Bone marrow, Pro/pre
  % of subset binding tetramer ± SEM: 0.05 ± 0.01%
[4]; C57BL/6, Bone marrow, T1
  % of subset binding tetramer ± SEM: 0.62 ± 0.10^d %
[4]; C57BL/6, Bone marrow, T2
  % of subset binding tetramer ± SEM: 0.54 ± 0.09^d %
[4]; C57BL/6, Peritoneum, B1a
  % of subset binding tetramer ± SEM: 0.52 ± 0.08%
[4]; C57BL/6, Peritoneum, B1b
  % of subset binding tetramer ± SEM: 0.50 ± 0.13%
[4]; C57BL/6, Peritoneum, B2
  % of subset binding tetramer ± SEM: 0.32 ± 0.09%
[4]; C57BL/6, Spleen, MF
  % of subset binding tetramer ± SEM: 0.16 ± 0.02%
[4]; C57BL/6, Spleen, MZ
  % of subset binding tetramer ± SEM: 0.25 ± 0.04%
[4]; C57BL/6, Spleen, T1
  % of subset binding tetramer ± SEM: 0.24 ± 0.06%
[4]; C57BL/6, Spleen, T2
  % of subset binding tetramer ± SEM: 0.21 ± 0.07%
[5]
  binding to antibody-coated beads: bound to both the non-neutralizing mAb 13H11 and the neutralizing anti-gp41 mAb 2F5
